According to PubChem BioAssay (NCI):
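In this assay, cells in 96-well plates receive the compound at five concentrations for 48 hours. Endpoints are linearly interpolated between the surrounding concentrations. At the GI50, growth is halved. Definition used: TGI = concentration required for complete inhibition of growth.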

Experiments:
Assay in all cases: inhibition of tumour cell growth, NCI panel, 48 h
PC-3 prostate = test system: PC-3 prostate
SK-MEL-2 melanoma = test system: SK-MEL-2 melanoma
BT-549 breast = test system: BT-549 breast
UACC-62 melanoma = test system: UACC-62 melanoma
ACHN renal = test system: ACHN renal
NCI-H460 lung = test system: NCI-H460 lung
SF-268 CNS = test system: SF-268 CNS
MOLT-4 leukemia = test system: MOLT-4 leukemia
HCC-2998 colon = test system: HCC-2998 colon
NCI/ADR-RES ovarian = test system: NCI/ADR-RES ovarian
SK-MEL-5 melanoma = test system: SK-MEL-5 melanoma
IGROV1 ovarian = test system: IGROV1 ovarian
OVCAR-4 ovarian = test system: OVCAR-4 ovarian
CAKI-1 renal = test system: CAKI-1 renal
NCI-H226 lung = test system: NCI-H226 lung
KM12 colon = test system: KM12 colon
NCI-H23 lung = test system: NCI-H23 lung
SNB-19 CNS = test system: SNB-19 CNS
SF-539 CNS = test system: SF-539 CNS
OVCAR-5 ovarian = test system: OVCAR-5 ovarian
SNB-75 CNS = test system: SNB-75 CNS
HOP-92 NSCLC = test system: HOP-92 NSCLC
HT29 colon = test system: HT29 colon
MDA-MB-435 = test system: MDA-MB-435
SK-OV-3 ovarian = test system: SK-OV-3 ovarian
HCT-15 colon = test system: HCT-15 colon
DU-145 prostate = test system: DU-145 prostate
CCRF-CEM leukemia = test system: CCRF-CEM leukemia
EKVX NSCLC = test system: EKVX NSCLC
SN12C renal = test system: SN12C renal
UO-31 renal = test system: UO-31 renal
K-562 leukemia = test system: K-562 leukemia
OVCAR-3 ovarian = test system: OVCAR-3 ovarian
T-47D breast = test system: T-47D breast
MDA-MB-231 breast = test system: MDA-MB-231 breast
SW-620 colon = test system: SW-620 colon
SR leukemia = test system: SR leukemia
HL-60(TB) leukemia = test system: HL-60(TB) leukemia
SF-295 CNS = test system: SF-295 CNS
HCT-116 colon = test system: HCT-116 colon
A549 NSCLC = test system: A549 NSCLC
TK-10 renal = test system: TK-10 renal
U251 CNS = test system: U251 CNS
HOP-62 NSCLC = test system: HOP-62 NSCLC
HS 578T breast = test system: HS 578T breast
NCI-H522 lung = test system: NCI-H522 lung
RXF 393 renal = test system: RXF 393 renal
MCF7 breast = test system: MCF7 breast
COLO 205 colon = test system: COLO 205 colon
SK-MEL-28 melanoma = test system: SK-MEL-28 melanoma
MALME-3M melanoma = test system: MALME-3M melanoma
LOX IMVI melanoma = test system: LOX IMVI melanoma
OVCAR-8 ovarian = test system: OVCAR-8 ovarian
M14 melanoma = test system: M14 melanoma
RPMI-8226 leukemia = test system: RPMI-8226 leukemia
786-0 renal = test system: 786-0 renal
UACC-257 melanoma = test system: UACC-257 melanoma
A498 renal = test system: A498 renal

Clc1ccc(N2N=C(c3cccc(Nc4ccncc4)c3)CC2c2ccc3c(c2)OCO3)cc1 (centres undefined)
GI50 (PC-3 prostate): 1580 nM | TGI (PC-3 prostate): 3270 nM | GI50 (SK-MEL-2 melanoma): 2090 nM | TGI (SK-MEL-2 melanoma): 4590 nM | GI50 (BT-549 breast): 4920 nM | TGI (BT-549 breast): 28600 nM | GI50 (UACC-62 melanoma): 1760 nM | TGI (UACC-62 melanoma): 3320 nM | GI50 (ACHN renal): 1650 nM | TGI (ACHN renal): 3130 nM | GI50 (NCI-H460 lung): 1770 nM | TGI (NCI-H460 lung): 3290 nM | GI50 (SF-268 CNS): 1630 nM | TGI (SF-268 CNS): 3320 nM | GI50 (MOLT-4 leukemia): 1970 nM | TGI (MOLT-4 leukemia): 4580 nM | GI50 (HCC-2998 colon): 1790 nM | TGI (HCC-2998 colon): 3200 nM | GI50 (NCI/ADR-RES ovarian): 1640 nM | TGI (NCI/ADR-RES ovarian): 3170 nM | GI50 (SK-MEL-5 melanoma): 1760 nM | TGI (SK-MEL-5 melanoma): 3170 nM | GI50 (IGROV1 ovarian): 1730 nM | TGI (IGROV1 ovarian): 3670 nM | GI50 (OVCAR-4 ovarian): 1690 nM | TGI (OVCAR-4 ovarian): 3250 nM | GI50 (CAKI-1 renal): 1440 nM | TGI (CAKI-1 renal): 2900 nM | GI50 (NCI-H226 lung): 7280 nM | TGI (NCI-H226 lung): 33100 nM | GI50 (KM12 colon): 1670 nM | TGI (KM12 colon): 3180 nM | GI50 (NCI-H23 lung): 1740 nM | TGI (NCI-H23 lung): 3370 nM | GI50 (SNB-19 CNS): 1940 nM | TGI (SNB-19 CNS): 4510 nM | GI50 (SF-539 CNS): 1790 nM | TGI (SF-539 CNS): 3380 nM | GI50 (OVCAR-5 ovarian): 2110 nM | TGI (OVCAR-5 ovarian): 5690 nM | GI50 (SNB-75 CNS): 1580 nM | TGI (SNB-75 CNS): 5680 nM | GI50 (HOP-92 NSCLC): 1240 nM | TGI (HOP-92 NSCLC): 2860 nM | GI50 (HT29 colon): 2440 nM | TGI (HT29 colon): 6550 nM | GI50 (MDA-MB-435): 1530 nM | TGI (MDA-MB-435): 3020 nM | GI50 (SK-OV-3 ovarian): 4310 nM | TGI (SK-OV-3 ovarian): 24100 nM | GI50 (HCT-15 colon): 1760 nM | TGI (HCT-15 colon): 3410 nM | GI50 (DU-145 prostate): 1840 nM | TGI (DU-145 prostate): 3390 nM | GI50 (CCRF-CEM leukemia): 3180 nM | TGI (CCRF-CEM leukemia): 15900 nM | GI50 (EKVX NSCLC): 2900 nM | TGI (EKVX NSCLC): 13300 nM | GI50 (SN12C renal): 1710 nM | TGI (SN12C renal): 3250 nM | GI50 (UO-31 renal): 1360 nM | TGI (UO-31 renal): 2860 nM | GI50 (K-562 leukemia): 2090 nM | TGI (K-562 leukemia): 5390 nM | GI50 (OVCAR-3 ovarian): 1630 nM | TGI (OVCAR-3 ovarian): 3070 nM | GI50 (T-47D breast): 2130 nM | TGI (T-47D breast): 5070 nM | GI50 (MDA-MB-231 breast): 1290 nM | TGI (MDA-MB-231 breast): 2640 nM | GI50 (SW-620 colon): 1630 nM | TGI (SW-620 colon): 3150 nM | GI50 (SR leukemia): 2000 nM | TGI (SR leukemia): 4760 nM | GI50 (HL-60(TB) leukemia): 1930 nM | TGI (HL-60(TB) leukemia): 4160 nM | GI50 (SF-295 CNS): 1790 nM | TGI (SF-295 CNS): 3290 nM

COc1cc2c(c(OC)c1OC)-c1ccc(N)c(=O)cc1[C@@H](NC(C)=O)CC2
GI50 (PC-3 prostate): 35.4 nM | TGI (PC-3 prostate): > 100000 nM | GI50 (HCT-116 colon): 16.8 nM | TGI (HCT-116 colon): > 100000 nM | GI50 (SK-MEL-2 melanoma): < 10 nM | TGI (SK-MEL-2 melanoma): 35.3 nM | GI50 (BT-549 breast): 16.4 nM | TGI (BT-549 breast): 74.4 nM | GI50 (UACC-62 melanoma): 37.9 nM | TGI (UACC-62 melanoma): > 100000 nM | GI50 (A549 NSCLC): 56.3 nM | TGI (A549 NSCLC): > 100000 nM | GI50 (ACHN renal): 152 nM | TGI (ACHN renal): > 100000 nM | GI50 (NCI-H460 lung): 29.4 nM | GI50 (SF-268 CNS): 33.9 nM | TGI (SF-268 CNS): > 100000 nM | GI50 (MOLT-4 leukemia): 39.5 nM | TGI (MOLT-4 leukemia): > 100000 nM | GI50 (HCC-2998 colon): 27.9 nM | GI50 (TK-10 renal): 85.2 nM | TGI (TK-10 renal): > 100000 nM | GI50 (NCI/ADR-RES ovarian): 3430 nM | TGI (NCI/ADR-RES ovarian): 41200 nM | GI50 (U251 CNS): 30.2 nM | TGI (U251 CNS): > 100000 nM | GI50 (IGROV1 ovarian): 35.9 nM | GI50 (HOP-62 NSCLC): 42.6 nM | TGI (HOP-62 NSCLC): > 100000 nM | GI50 (HS 578T breast): 12.7 nM | TGI (HS 578T breast): > 100000 nM | GI50 (NCI-H522 lung): < 11.4 nM | TGI (NCI-H522 lung): < 21 nM | GI50 (OVCAR-4 ovarian): 54.2 nM | TGI (OVCAR-4 ovarian): > 100000 nM | GI50 (CAKI-1 renal): 1420 nM | TGI (CAKI-1 renal): > 47200 nM | GI50 (RXF 393 renal): 30.3 nM | TGI (RXF 393 renal): > 100000 nM | GI50 (MCF7 breast): < 10 nM | TGI (MCF7 breast): > 100000 nM | GI50 (NCI-H226 lung): 85.2 nM | GI50 (COLO 205 colon): 12 nM | TGI (COLO 205 colon): 38.6 nM | GI50 (KM12 colon): < 10 nM | TGI (KM12 colon): 186 nM | GI50 (NCI-H23 lung): 31.6 nM | TGI (NCI-H23 lung): > 100000 nM | GI50 (SNB-19 CNS): 914 nM | TGI (SNB-19 CNS): > 100000 nM | GI50 (SF-539 CNS): 28.9 nM | TGI (SF-539 CNS): > 100000 nM | GI50 (SK-MEL-28 melanoma): > 100000 nM | TGI (SK-MEL-28 melanoma): > 100000 nM | GI50 (MALME-3M melanoma): 48800 nM | TGI (MALME-3M melanoma): > 100000 nM | GI50 (OVCAR-5 ovarian): 202 nM | TGI (OVCAR-5 ovarian): > 100000 nM | GI50 (LOX IMVI melanoma): 25.6 nM | TGI (LOX IMVI melanoma): > 100000 nM | GI50 (HOP-92 NSCLC): 40.9 nM | TGI (HOP-92 NSCLC): > 100000 nM | GI50 (OVCAR-8 ovarian): 47.7 nM | TGI (OVCAR-8 ovarian): > 100000 nM | GI50 (M14 melanoma): 20.8 nM | GI50 (HT29 colon): < 15.9 nM | TGI (HT29 colon): 68.8 nM | GI50 (MDA-MB-435): < 10 nM | GI50 (SK-OV-3 ovarian): 38.8 nM | TGI (SK-OV-3 ovarian): > 100000 nM | GI50 (HCT-15 colon): 358 nM | TGI (HCT-15 colon): > 100000 nM | GI50 (DU-145 prostate): 29.1 nM | TGI (DU-145 prostate): 95.1 nM | GI50 (RPMI-8226 leukemia): 45.6 nM | TGI (RPMI-8226 leukemia): > 100000 nM | GI50 (CCRF-CEM leukemia): < 14.7 nM | TGI (CCRF-CEM leukemia): > 100000 nM | GI50 (EKVX NSCLC): 80.8 nM | TGI (EKVX NSCLC): > 100000 nM | GI50 (SN12C renal): 54.6 nM | TGI (SN12C renal): > 100000 nM | GI50 (UO-31 renal): 705 nM | TGI (UO-31 renal): > 100000 nM | GI50 (K-562 leukemia): < 14 nM | TGI (K-562 leukemia): > 100000 nM | GI50 (OVCAR-3 ovarian): < 12 nM | TGI (OVCAR-3 ovarian): 36.2 nM | GI50 (T-47D breast): > 100000 nM | TGI (T-47D breast): > 100000 nM | GI50 (SW-620 colon): < 10 nM | TGI (SW-620 colon): > 100000 nM | GI50 (SR leukemia): < 10 nM | TGI (SR leukemia): > 100000 nM | GI50 (HL-60(TB) leukemia): 17.1 nM | GI50 (786-0 renal): 108 nM | TGI (786-0 renal): > 100000 nM | GI50 (UACC-257 melanoma): > 100000 nM | TGI (UACC-257 melanoma): > 100000 nM | GI50 (A498 renal): 29.7 nM | GI50 (SF-295 CNS): 33.9 nM
